Measured values from ChEMBL document CHEMBL5113483, “Design and synthesis of NAD(P)H: Quinone oxidoreductase (NQO1)-activated prodrugs of 23-hydroxybetulinic acid with enhanced antitumor properties” (Eur J Med Chem, 2022).

Assays:
[1] = Selectivity index, ratio of IC50 for cytotoxicity against human HFL1 cells to IC50 for antiproliferative activity against human HT-29 cells overexpressing NQO1; assay type: toxicity, cell-based; conditions: HFL1 cells versus HT-29 cells overexpressing NQO1, read-out: Ratio IC50
A549 = test: Antiproliferative activity against human A549 cells overexpressing NQO1 assessed as inhibition of cell growth incubated for 72 hrs by MTT assay; assay type: functional, cell-based; conditions: A549, 72 h
[2] = Selectivity index, ratio of IC50 for antiproliferative activity against NQO1-deficient human NCI-H596 cells to IC50 for antiproliferative activity against human HT-29 cells overexpressing NQO1; assay type: functional
NCI-H596 = test: Antiproliferative activity against NQO1-deficient human NCI-H596 cells assessed as inhibition of cell growth incubated for 72 hrs by MTT assay; assay type: functional, cell-based; conditions: NCI-H596, 72 h
[3] = Cytotoxicity against human HFL1 cells assessed as inhibition of cell growth incubated for 72 hrs by MTT assay; assay type: toxicity, cell-based
HT-29 [4] = test: Antiproliferative activity against human HT-29 cells overexpressing NQO1 assessed as inhibition of cell growth incubated for 72 hrs by MTT assay; assay type: functional, cell-based; conditions: HT-29, 72 h
[5] = Selectivity index, ratio of IC50 for antiproliferative activity against human HT-29 cells overexpressing NQO1 in presence of dicoumarol to antiproliferative activity against human HT-29 cells overexpressing NQO1; assay type: functional
HT-29 [6] = test: Antiproliferative activity against human HT-29 cells overexpressing NQO1 assessed as inhibition of cell growth preincubated with NQO1 inhibitor, dicoumarol for 30 mins followed by compound addition and measured after 72 hrs by MTT assay; assay type: functional, cell-based
HT-29 [7] = test: Antitumor activity against human HT-29 cells overexpressing NQO-1 xenografted in ICR mouse assessed as reduction in tumor weight at 30 mg/kg, ip administered every day for 21 days and measured every 2 days relative to control; assay type: functional; design: scale not given: the % may be the effect or the level left; conditions: time 21 day
[8] = Toxicity in […] xenografted with human HT-29 cells overexpressing NQO-1 assessed as reduction in body weight at 30 mg/kg, ip administered for 21 days and measured every 2 days; assay type: organism-based; conditions: in vivo, 504 h, time 21 day
HT-29 [9] = test: Antitumor activity against human HT-29 cells overexpressing NQO-1 xenografted in ICR mouse assessed as reduction in tumor weight at 30 mg/kg, ip administered every 2 days for 21 days and measured every 2 days relative to control; assay type: functional; design: scale not given: the % may be the effect or the level left

Structure (SMILES)	selectivity ratio [1]	IC50 (A549)	Ratio IC50 [2]	IC50 (NCI-H596)	IC50 at 72 h [3]	IC50 (HT-29 [4])	Ratio IC50 [5]	IC50 (HT-29 [6])	Activity (HT-29 [7])	Activity [8]	Activity (HT-29 [9])
C=C(C)[C@@H]1CC[C@]2(C(=O)OCCOC(=O)CCC(=O)OCc3cn(C)c4c3C(=O)C(OC)=CC4=O)CC[C@]3(C)[C@H](CC[C@@H]4[C@@]5(C)CCC(=O)[C@@](C)(COC(C)=O)[C@@H]5CC[C@]43C)[C@@H]12	1.68	3.04 µM	1.95	5.64 µM	6.53 µM	3.35 µM	–	–	–	–	–
C=C(C)[C@@H]1CC[C@]2(C(=O)O)CC[C@]3(C)[C@H](CC[C@@H]4[C@@]5(C)CC[C@H](OC(=O)CCCC(=O)OCc6cn(C)c7c6C(=O)C(OC)=CC7=O)[C@@](C)(COC(C)=O)[C@@H]5CC[C@]43C)[C@@H]12	1.27	4.03 µM	1.36	4.58 µM	4.09 µM	3.58 µM	–	–	–	–	–
C=C(C)[C@@H]1CC[C@]2(C(=O)N3CCC(N4CCCCC4)CC3)CC[C@]3(C)[C@H](CC[C@@H]4[C@@]5(C)CC[C@H](O)[C@@](C)(COC(=O)CCC(=O)OCc6cn(C)c7c6C(=O)C(OC)=CC7=O)[C@@H]5CC[C@]43C)[C@@H]12	3.71	2.66 µM	3.79	6.41 µM	6.56 µM	1.73 µM	4.1	7.11 µM	–	–	–
C=C(C)[C@@H]1CC[C@]2(C(=O)O)CC[C@]3(C)[C@H](CC[C@@H]4[C@@]5(C)CC[C@H](OC(=O)CCC(=O)OCc6cn(C)c7c6C(=O)C(OC)=CC7=O)[C@@](C)(COC(C)=O)[C@@H]5CC[C@]43C)[C@@H]12	1.56	4.52 µM	1.97	5.74 µM	7.25 µM	3.69 µM	–	–	–	–	–
C=C(C)[C@@H]1CC[C@]2(C(=O)O)CC[C@]3(C)[C@H](CC[C@@H]4[C@@]5(C)CC[C@H](O)[C@@](C)(CO)[C@@H]5CC[C@]43C)[C@@H]12	1.06	51.4 µM	1.36	58.1 µM	75 µM	54.8 µM	–	–	56.81%	–	–
C=C(C)[C@@H]1CC[C@]2(C(=O)OCCOC(=O)CCC(=O)OCc3cn(C)c4c3C(=O)C(OC)=CC4=O)CC[C@]3(C)[C@H](CC[C@@H]4[C@@]5(C)CC[C@H](OC(=O)CCC(=O)N6CCNCC6)[C@@](C)(COC(C)=O)[C@@H]5CC[C@]43C)[C@@H]12	1.99	5.45 µM	2.12	6.39 µM	6.79 µM	3.29 µM	–	–	–	–	–
C=C(C)[C@@H]1CC[C@]2(C(=O)NCCNC(=O)CCC(=O)OCc3cn(C)c4c3C(=O)C(OC)=CC4=O)CC[C@]3(C)[C@H](CC[C@@H]4[C@@]5(C)CC[C@H](OC(C)=O)[C@@](C)(COC(C)=O)[C@@H]5CC[C@]43C)[C@@H]12	4.1	3.1 µM	3.01	7.89 µM	5.78 µM	1.92 µM	4.2	8.02 µM	–	–	–
COc1cccc2c1C(=O)c1c(O)c3c(c(O)c1C2=O)C[C@@](O)(C(=O)CO)C[C@@H]3O[C@H]1C[C@H](N)[C@H](O)[C@H](C)O1 [DOXORUBICIN]	–	1.15 µM	–	1.52 µM	–	1.13 µM	–	–	–	–	–
C=C(C)[C@@H]1CC[C@]2(C(=O)OCCOC(=O)CCC(=O)OCc3cn(C)c4c3C(=O)C(OC)=CC4=O)CC[C@]3(C)[C@H](CC[C@@H]4[C@@]5(C)CC[C@H](O)[C@@](C)(COC(=O)C6CCNCC6)[C@@H]5CC[C@]43C)[C@@H]12	1.7	5.41 µM	1.59	7.34 µM	6.83 µM	4.3 µM	–	–	–	–	–
C=C(C)[C@@H]1CC[C@]2(C(=O)N(CCCN(C)C)C(=O)NCC)CC[C@]3(C)[C@H](CC[C@@H]4[C@@]5(C)CC[C@H](O)[C@@](C)(COC(=O)CCC(=O)OCc6cn(C)c7c6C(=O)C(OC)=CC7=O)[C@@H]5CC[C@]43C)[C@@H]12	1.23	2.32 µM	1.85	2.78 µM	4.22 µM	2.28 µM	–	–	–	–	–
C=C(C)[C@@H]1CC[C@]2(C(=O)OCCOC(=O)CCC(=O)OCc3cn(C)c4c3C(=O)C(OC)=CC4=O)CC[C@]3(C)[C@H](CC[C@@H]4[C@@]5(C)CC[C@H](NC(=O)CCC(=O)N6CCNCC6)[C@@](C)(COC(C)=O)[C@@H]5CC[C@]43C)[C@@H]12	1.77	5.17 µM	1.96	6.44 µM	7.11 µM	3.63 µM	–	–	–	–	–
C=C(C)[C@@H]1CC[C@]2(C(=O)O)CC[C@]3(C)[C@H](CC[C@@H]4[C@@]5(C)CC[C@H](O)[C@@](C)(COC(=O)CCCC(=O)OCc6cn(C)c7c6C(=O)C(OC)=CC7=O)[C@@H]5CC[C@]43C)[C@@H]12	2.46	2.52 µM	1.69	4.71 µM	3.23 µM	1.92 µM	–	–	–	–	–
O=c1[nH]cc(F)c(=O)[nH]1 [FLUOROURACIL]	–	–	–	–	–	–	–	–	–	Toxic	65.07%
